Data published in patent US11040028B2, “Penicinotam derivative, preparation method and use thereof” (OCEAN UNIVERSITY OF CHINA, priority 2017, dated 2021).

Key:
Assay type in all cases: cell-based
[1] = system: human dermal fibroblasts CCC-ESF-1; experiment: Anti-fibrosis activity test: inhibition of proliferation of human dermal fibroblasts CCC-ESF-1 (CCK-8); details: Fibroblast
How it was run: (§1)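 IC50 values derive from CCK-8 absorbance (450 nm, 2 h reagent incubation) measured after a 48 h exposure to test compounds. Before dosing, cells plated at 2×10^4 cells/mL had attached for 24 h under 5% CO2 at 37° C; triplicate wells per concentration.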

[2] = system: human lung fibroblasts HFL1; experiment: Anti-fibrosis activity test: inhibition of proliferation of human lung fibroblasts HFL1 (CCK-8); details: Homo sapiens, HFL1, 48 h
How it was run: as §1

[3] = system: human hepatic stellate cells LX-2; experiment: Anti-fibrosis activity test: inhibition of proliferation of human hepatic stellate cells LX-2 (CCK-8); details: Homo sapiens, 48 h
How it was run: as §1

NF-κB = experiment: Immunological activity test: inhibition of NF-κB activity; details: initial concentration of 30 μM; a/b isomers given as first/second symbol; read-out: IC50 (μM), inhibitory activity against NF-κB
Source text: Main references for immunological activity test of the compounds of the present application includes: Vogl, S.; Atanasov, A. G.; Binder, M.; Bulusu, M.; Zehl, M.; Fakhrudin, N.; Heiss, E. H.; Picker, P.; Wawrosch, C.; Saukel, J.; Reznicek, G.; Urban, E.; Bochkov, V.; Dirsch, V. M.; Kopp, B. J. Evid-Based Complementary Alern. Med. 2013, ID 395316. Commercially available parthenolide was utilized as a positive control.
The ability of the compounds of the present application to inhibit NF-κB activity was tested at an initial concentration of 30 μM.
The assay data for the compounds of the present application were further analyzed to determine their IC50 values.

[4] = system: cardiac fibroblast RAT-iCell-C002; experiment: Anti-fibrosis activity test: inhibition of proliferation of cardiac fibroblast RAT-iCell-C002 (CCK-8); details: Cardiac fibroblast, 48 h
How it was run: as §1

[5] = system: human embryonic lung fibroblast IMR-90; experiment: Anti-fibrosis activity test: inhibition of proliferation of human embryonic lung fibroblast IMR-90 (CCK-8)
How it was run: as §1

BHK-21 cells = experiment: Anti-fibrosis activity test: inhibition of BHK-21 cell proliferation (CCK-8); details: Mesocricetus auratus, BHK-21, 48 h
How it was run: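 Cells seeded at 2×10^4 cells/mL, allowed to adhere 24 hours, then exposed to graded compound concentrations in triplicate for 48 hours at 37° C, 5% CO2. CCK-8 added for 2 hours, absorbance read at 450 nm; inhibition versus blank control used to derive IC50. Pirfenidone served as positive control.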

[6] = system: human fibrosarcoma cells HT-1080; experiment: Anti-fibrosis activity test: inhibition of proliferation of human fibrosarcoma cells HT-1080 (CCK-8); details: Homo sapiens, HT-1080, 48 h
How it was run: as §1

[7] = human dermal fibroblasts CCC-ESF-1, CCK-8, 48 hours
[8] = human lung fibroblasts HFL1, CCK-8, 48 hours
[9] = human hepatic stellate cells LX-2, CCK-8, 48 hours
[10] = cardiac fibroblast RAT-iCell-C002, CCK-8, 48 hours
[11] = human embryonic lung fibroblast IMR-90, CCK-8, 48 hours
[12] = CCK-8, 48 hours after administration
[13] = human fibrosarcoma cells HT-1080, CCK-8, 48 hours
[14] = Homo sapiens, CCC-ESF-1 cells, 48 h, CCK-8
[15] = Homo sapiens, IMR-90 cells, 48 h, CCK-8

Row | SMILES | IC50 (NF-κB) [µM] | IC50 [6, 13] [mM] | IC50 ([6]; HT-1080 cells, 48 h, CCK-8) [mM] | IC50 [1, 7] [mM] | IC50 [2, 8] [mM] | IC50 [3, 9] [mM] | IC50 [4, 10] [mM] | IC50 [5, 11] [mM] | IC50 (BHK-21 cells; [12]) [mM] | IC50 [1, 14] [mM] | IC50 ([2]; HFL1 cells, 48 h, CCK-8) [mM] | IC50 ([3]; LX-2, 48 h, LX-2 cells, CCK-8) [mM] | IC50 ([4]; RAT-iCell-C002 cells, CCK-8) [mM] | IC50 [5, 15] [mM] | IC50 (BHK-21 cells; 48 h, CCK-8) [mM]
1 | CC(C)Oc1c2c(nc3ccccc13)-c1cccn1C2=O [Compound 5b, 9-isopropoxy-10H-pyrrolizino[1,2-b]quinolin-10-one] | 10 to 50 | 5 to 20 | – | 0.05 to 5 | 0.05 to 5 | 5 to 20 | 0.05 to 5 | 0.05 to 5 | 0.05 to 5 | – | – | – | – | – | –
2 | O=C1c2c(n(Cc3ccc(F)cc3)c3ccc(F)cc3c2=O)-c2cccn21 [Compound 617a, 7-Fluoro-4-(4-fluorobenzyl)-9H-pyrrolizino[1,2-b]quinoline-9,10(4H)-dione] | 0.1 to 1 | 0.05 to 5 | – | 0.05 to 5 | 0.05 to 5 | 0.05 to 5 | 0.05 to 5 | 0.05 to 5 | < 0.05 | – | – | – | – | – | –
3 | CC(C)=CCOc1c2c(nc3ccccc13)-c1cccn1C2=O [Compound 9b, 9-((3-methylbut-2-en-1-yl)oxy)-10H-pyrrolizino[1,2-b]quinolin-10-one] | 1 to 10 | 0.05 to 5 | – | 5 to 20 | 0.05 to 5 | 0.05 to 5 | 0.05 to 5 | 0.05 to 5 | 5 to 20 | – | – | – | – | – | –
4 | O=C1c2c(nc3cc(C(F)(F)F)ccc3c2OCc2ccc(Cl)cc2)-c2cccn21 [Compound 544b, 9-((4-chlorobenzyl)oxy)-6-(trifluoromethyl)-10H-pyrrolizino[1,2-b]quinolin-10-one] | 1 to 10 | 0.05 to 5 | – | 0.05 to 5 | 0.05 to 5 | 0.05 to 5 | 0.05 to 5 | 0.05 to 5 | 0.05 to 5 | – | – | – | – | – | –
5 | N#Cc1ccc2c(OCc3cccc(F)c3)c3c(nc2c1)-c1cccn1C3=O [Compound 515b, 9-((3-fluorobenzyl)oxy)-10-oxo-10H-pyrrolizino[1,2-b]quinoline-6-carbonitrile] | 1 to 10 | 5 to 20 | – | 0.05 to 5 | 0.05 to 5 | 0.05 to 5 | < 0.05 | 5 to 20 | 0.05 to 5 | – | – | – | – | – | –
6 | O=C1c2c(n(Cc3ccccc3Cl)c3cc(C(F)(F)F)ccc3c2=O)-c2cccn21 [Compound 546a, 4-(2-Chlorobenzyl)-6-(trifluoromethyl)-9H-pyrrolizino[1,2-b]quinoline-9,10(4H)-dione] | 1 to 10 | 0.05 to 5 | – | 0.05 to 5 | 0.05 to 5 | 0.05 to 5 | 0.05 to 5 | 0.05 to 5 | < 0.05 | – | – | – | – | – | –
7 | N#Cc1ccc(Cn2c3c(c(=O)c4cc(F)ccc42)C(=O)n2cccc2-3)cc1 [Compound 619a, 4-((7-Fluoro-9,10-dioxo-9H-pyrrolizino[1,2-b]quinolin-4(10H)-yl)methyl)benzonitrile] | 1 to 10 | 0.05 to 5 | – | < 0.05 | 0.05 to 5 | 0.05 to 5 | 0.05 to 5 | 0.05 to 5 | 0.05 to 5 | – | – | – | – | – | –
8 | CC(C)CCOc1c2c(nc3ccccc13)-c1cccn1C2=O [Compound 8b, 9-(isopentyloxy)-10H-pyrrolizino[1,2-b]quinolin-10-one] | 10 to 50 | 0.05 to 5 | – | 0.05 to 5 | 0.05 to 5 | 0.05 to 5 | 0.05 to 5 | 0.05 to 5 | 0.05 to 5 | – | – | – | – | – | –
9 | O=C1c2c(n(Cc3ccc(Cl)cc3)c3ccc(F)cc3c2=O)-c2cccn21 [Compound 618a, 4-(4-Chlorobenzyl)-7-fluoro-9H-pyrrolizino[1,2-b]quinoline-9,10(4H)-dione] | 1 to 10 | 0.05 to 5 | – | 0.05 to 5 | 0.05 to 5 | 0.05 to 5 | 0.05 to 5 | 0.05 to 5 | 0.05 to 5 | – | – | – | – | – | –

The next lines start with results.

Row | IC50 (NF-κB) [µM] | IC50 [6, 13] [mM] | IC50 ([6]; HT-1080 cells, 48 h, CCK-8) [mM] | SMILES | IC50 [1, 7] [mM] | IC50 [2, 8] [mM] | IC50 [3, 9] [mM] | IC50 [4, 10] [mM] | IC50 [5, 11] [mM] | IC50 (BHK-21 cells; [12]) [mM] | IC50 [1, 14] [mM] | IC50 ([2]; HFL1 cells, 48 h, CCK-8) [mM] | IC50 ([3]; LX-2, 48 h, LX-2 cells, CCK-8) [mM] | IC50 ([4]; RAT-iCell-C002 cells, CCK-8) [mM] | IC50 [5, 15] [mM] | IC50 (BHK-21 cells; 48 h, CCK-8) [mM]
10 | 1 to 10 | 0.05 to 5 | – | N#Cc1ccc2c(c1)c(=O)c1c(n2Cc2ccc(-c3ccccc3)cc2)-c2cccn2C1=O [Compound 628a, 4-([1,1′-Biphenyl]-4-ylmethyl)-9,10-dioxo-4,10-dihydro-9H-pyrrolizino[1,2-b]quinoline-7-carbonitrile] | 0.05 to 5 | 5 to 20 | 0.05 to 5 | 0.05 to 5 | 0.05 to 5 | 0.05 to 5 | – | – | – | – | – | –
11 | 1 to 10 | 0.05 to 5 | – | O=C1c2c(n(Cc3cc(C(F)(F)F)cc(C(F)(F)F)c3)c3cc(N4CCNCC4)ccc3c2=O)-c2cccn21 [Compound 631a, 4-(3,5-Bis(trifluoromethyl)benzyl)-6-(piperazin-1-yl)-9H-pyrrolizino[1,2-b]quinoline-9,10(4H)-dione] | 0.05 to 5 | 0.05 to 5 | 0.05 to 5 | 0.05 to 5 | 0.05 to 5 | 0.05 to 5 | – | – | – | – | – | –
12 | 0.001 to 0.1 | – | 0.05 to 5 | Cc1ccc2c(O)c3c(nc2c1)-c1cccn1C3=O [Compound 714b, 9-hydroxy-6-methyl-10H-pyrrolizino[1,2-b]quinolin-10-one] | – | – | – | – | – | – | 0.05 to 5 | 0.05 to 5 | 0.05 to 5 | 0.05 to 5 | 0.05 to 5 | 0.05 to 5
13 | 1 to 10 | 0.05 to 5 | – | N#Cc1ccc(COc2c3c(nc4ccc(F)cc24)-c2cccn2C3=O)cc1 [Compound 619b, 4-(((7-fluoro-10-oxo-10H-pyrrolizino[1,2-b]quinolin-9-yl)oxy)methyl)benzonitrile] | < 0.05 | 0.05 to 5 | 0.05 to 5 | 0.05 to 5 | 0.05 to 5 | 0.05 to 5 | – | – | – | – | – | –
14 | 1 to 10 | 0.05 to 5 | – | N#Cc1ccc2nc3c(c(OCc4ccc(C(F)(F)F)cc4)c2c1)C(=O)n1cccc1-3 [Compound 627b, 10-oxo-9-((4-(trifluoromethyl)benzyl)oxy)-10H-pyrrolizino[1,2-b]quinoline-7-carbonitrile] | 0.05 to 5 | 0.05 to 5 | 0.05 to 5 | 0.05 to 5 | 0.05 to 5 | 0.05 to 5 | – | – | – | – | – | –
15 | 1 to 10 | 0.05 to 5 | – | N#Cc1ccc2nc3c(c(OCc4ccc(-c5ccccc5)cc4)c2c1)C(=O)n1cccc1-3 [Compound 628b, 9-([1,1′-biphenyl]-4-ylmethoxy)-10-oxo-10H-pyrrolizino[1,2-b]quinoline-7-carbonitrile] | 0.05 to 5 | 0.05 to 5 | 0.05 to 5 | 0.05 to 5 | 0.05 to 5 | 0.05 to 5 | – | – | – | – | – | –
16 | 1 to 10 | 0.05 to 5 | – | O=C1c2c(n(Cc3ccc(C(F)(F)F)cc3)c3ccc(F)cc3c2=O)-c2cccn21 [Compound 620a, 7-Fluoro-4-(4-(trifluoromethyl)benzyl)-9H-pyrrolizino[1,2-b]quinoline-9,10(4H)-dione] | 5 to 20 | 0.05 to 5 | 0.05 to 5 | 0.05 to 5 | 0.05 to 5 | < 0.05 | – | – | – | – | – | –
17 | 1 to 10 | – | 0.05 to 5 | Cc1ccc2c(=O)c3c([nH]c2c1)-c1cccn1C3=O [Compound 714a, 6-Methyl-9H-pyrrolizino[1,2-b]quinoline-9,10(4H)-dione] | – | – | – | – | – | – | 0.05 to 5 | 0.05 to 5 | 0.05 to 5 | 0.05 to 5 | 0.05 to 5 | 0.05 to 5
18 | 1 to 10 | 0.05 to 5 | – | N#Cc1ccc2c(c1)c(=O)c1c(n2Cc2ccc(Cl)cc2)-c2cccn2C1=O [Compound 625a, 4-(4-Chlorobenzyl)-9,10-dioxo-4,10-dihydro-9H-pyrrolizino[1,2-b]quinoline-7-carbonitrile] | 0.05 to 5 | 0.05 to 5 | 0.05 to 5 | 0.05 to 5 | 0.05 to 5 | 0.05 to 5 | – | – | – | – | – | –
19 | 1 to 10 | 0.05 to 5 | – | N#Cc1ccc(COc2c3c(nc4ccc(C#N)cc24)-c2cccn2C3=O)cc1 [Compound 626b, 9-((4-cyanobenzyl)oxy)-10-oxo-10H-pyrrolizino[1,2-b]quinoline-7-carbonitrile] | < 0.05 | 0.05 to 5 | 0.05 to 5 | 0.05 to 5 | 0.05 to 5 | 0.05 to 5 | – | – | – | – | – | –
